Data as given in ChEMBL document CHEMBL2380246, “Structure-activity relationships of hybrid annonaceous acetogenins: powerful growth inhibitory effects of their connecting groups between heterocycle and hydrophobic carbon chain bearing THF ring on human cancer cell lines” (2013).

Tests used:
Format in all cases: functional
[1] = test system: DU-145; assay: Growth inhibition of human DU145 cells after 48 hrs by sulforhodamine B assay; conditions: DU-145, 48 h
[2] = test system: SF-295; assay: Growth inhibition of human SF295 cells after 48 hrs by sulforhodamine B assay; conditions: SF-295, 48 h
[3] = test system: MKN-7; assay: Growth inhibition of human MKN7 cells after 48 hrs by sulforhodamine B assay; conditions: MKN-7, 48 h
[4] = test system: MKN-74; assay: Growth inhibition of human MKN74 cells after 48 hrs by sulforhodamine B assay; conditions: MKN-74, 48 h
[5] = test system: MKN-28; assay: Growth inhibition of human MKN28 cells after 48 hrs by sulforhodamine B assay; conditions: MKN-28, 48 h
[6] = test system: SF-268; assay: Growth inhibition of human SF268 cells after 48 hrs by sulforhodamine B assay; conditions: SF-268, 48 h
[7] = test system: DMS-114; assay: Growth inhibition of human DMS114 cells after 48 hrs by sulforhodamine B assay; conditions: DMS-114, 48 h
[8] = test system: SF-539; assay: Growth inhibition of human SF539 cells after 48 hrs by sulforhodamine B assay; conditions: SF-539, 48 h
[9] = test system: PC-3; assay: Growth inhibition of human PC3 cells after 48 hrs by sulforhodamine B assay; conditions: PC-3, 48 h
[10] = test system: HCT-15; assay: Growth inhibition of human HCT15 cells after 48 hrs by sulforhodamine B assay; conditions: HCT-15, 48 h
[11] = Growth inhibition of human MKN1 cells after 48 hrs by sulforhodamine B assay; conditions: MKN-1, 48 h
[12] = Growth inhibition of human HBC4 cells after 48 hrs by sulforhodamine B assay; conditions: HBC4, 48 h
[13] = test system: St-4; assay: Growth inhibition of human St-4 cells after 48 hrs by sulforhodamine B assay; conditions: St-4, 48 h
[14] = test system: OVCAR-8; assay: Growth inhibition of human OVCAR8 cells after 48 hrs by sulforhodamine B assay; conditions: OVCAR-8, 48 h
[15] = test system: HT-29; assay: Growth inhibition of human HT-29 cells after 48 hrs by sulforhodamine B assay; conditions: HT-29, 48 h
[16] = test system: LOX IMVI; assay: Growth inhibition of human LOXIMVI cells after 48 hrs by sulforhodamine B assay
[17] = test system: SNB-75; assay: Growth inhibition of human SNB75 cells after 48 hrs by sulforhodamine B assay; conditions: SNB-75, 48 h
[18] = test system: SK-OV-3; assay: Growth inhibition of human SKOV3 cells after 48 hrs by sulforhodamine B assay; conditions: SK-OV-3, 48 h
[19] = test system: A549; assay: Growth inhibition of human A549 cells after 48 hrs by sulforhodamine B assay; conditions: A549, 48 h
[20] = test system: ACHN; assay: Growth inhibition of human ACHN cells after 48 hrs by sulforhodamine B assay
[21] = test system: MCF7; assay: Growth inhibition of human MCF7 cells after 48 hrs by sulforhodamine B assay; conditions: MCF7, 48 h
[22] = Growth inhibition of human RXF631L cells after 48 hrs by sulforhodamine B assay; conditions: RXF 631, 48 h
[23] = test system: OVCAR-4; assay: Growth inhibition of human OVCAR4 cells after 48 hrs by sulforhodamine B assay; conditions: OVCAR-4, 48 h
[24] = test system: HCT-116; assay: Growth inhibition of human HCT116 cells after 48 hrs by sulforhodamine B assay; conditions: HCT-116, 48 h
[25] = Growth inhibition of human HBC5 cells after 48 hrs by sulforhodamine B assay; conditions: HBC5, 48 h
[26] = test system: MDA-MB-231; assay: Growth inhibition of human MDA-MB-231 cells after 48 hrs by sulforhodamine B assay; conditions: MDA-MB-231, 48 h
[27] = test system: OVCAR-5; assay: Growth inhibition of human OVCAR5 cells after 48 hrs by sulforhodamine B assay; conditions: OVCAR-5, 48 h
[28] = test system: OVCAR-3; assay: Growth inhibition of human OVCAR3 cells after 48 hrs by sulforhodamine B assay; conditions: OVCAR-3, 48 h
[29] = test system: NCI-H460; assay: Growth inhibition of human NCI-H460 cells after 48 hrs by sulforhodamine B assay; conditions: NCI-H460, 48 h
[30] = Growth inhibition of human HCC2998 cells after 48 hrs by sulforhodamine B assay; conditions: HCC 2998, 48 h
[31] = test system: SNB-78; assay: Growth inhibition of human SNB78 cells after 48 hrs by sulforhodamine B assay; conditions: SNB-78, 48 h
[32] = test system: MKN-45; assay: Growth inhibition of human MKN45 cells after 48 hrs by sulforhodamine B assay; conditions: MKN-45, 48 h
[33] = test system: NCI-H522; assay: Growth inhibition of human NCI-H522 cells after 48 hrs by sulforhodamine B assay; conditions: NCI-H522, 48 h
[34] = test system: NCI-H23; assay: Growth inhibition of human NCI-H23 cells after 48 hrs by sulforhodamine B assay; conditions: NCI-H23, 48 h
[35] = test system: NCI-H226; assay: Growth inhibition of human NCI-H226 cells after 48 hrs by sulforhodamine B assay; conditions: NCI-H226, 48 h
[36] = test system: DMS-273; assay: Growth inhibition of human DMS273 cells after 48 hrs by sulforhodamine B assay; conditions: DMS-273, 48 h
[37] = Growth inhibition of human BSY1 cells after 48 hrs by sulforhodamine B assay; conditions: BSY-1, 48 h
[38] = test system: KM12; assay: Growth inhibition of human KM12 cells after 48 hrs by sulforhodamine B assay; conditions: KM12, 48 h
[39] = test system: U-251; assay: Growth inhibition of human U251 cells after 48 hrs by sulforhodamine B assay; conditions: U-251, 48 h

GI50 [1]	GI50 [4]	GI50 [9]	GI50 [10]	GI50 [14]	GI50 [15]	GI50 [18]	GI50 [19]	GI50 [20]	GI50 [23]	SMILES	GI50 [2]	GI50 [6]	GI50 [7]	GI50 [8]	GI50 [11]	GI50 [12]	GI50 [13]	GI50 [16]	GI50 [17]	GI50 [22]	further results
> 100 µM	> 100 µM	> 100 µM	> 100 µM	> 100 µM	> 100 µM	> 100 µM	> 100 µM	> 100 µM	> 100 µM	CCCCCCCCCCCC[C@@H](O)[C@H]1CC[C@H]([C@H](O)CCCCCCCCCCC(=O)Nc2ccnn2C)O1	57.5 µM	> 100 µM	3310 nM	> 100 µM	> 100 µM	> 100 µM	> 100 µM	> 100 µM	> 100 µM	> 100 µM	GI50 [3]: 20.9 µM; GI50 [5]: 18.2 µM; GI50 [21]: > 100 µM; GI50 [24]: 64.6 µM; GI50 [25]: > 100 µM; GI50 [26]: > 100 µM; GI50 [27]: > 100 µM; GI50 [28]: > 100 µM; GI50 [29]: > 100 µM; GI50 [30]: > 100 µM; GI50 [31]: > 100 µM; GI50 [32]: > 100 µM; GI50 [33]: 28.8 µM; GI50 [34]: 26.9 µM; GI50 [35]: 75.9 µM; GI50 [36]: > 100 µM; GI50 [37]: 95.5 µM; GI50 [38]: > 100 µM; GI50 [39]: > 100 µM
> 100 µM	30.9 µM	28.2 µM	47.9 µM	> 100 µM	32.4 µM	> 100 µM	56.2 µM	57.5 µM	> 100 µM	CCCCCCCCCCCC[C@@H](O)[C@H]1CC[C@H]([C@H](O)CCCCCCCCCCOC(=O)c2ccnn2C)O1	30.9 µM	> 100 µM	407 nM	> 100 µM	43.7 µM	51.3 µM	30.2 µM	12.9 µM	> 100 µM	> 100 µM	GI50 [3]: 0.617 µM; GI50 [5]: 2.51 µM; GI50 [21]: 22.9 µM; GI50 [24]: 3.98 µM; GI50 [25]: 25.7 µM; GI50 [26]: > 100 µM; GI50 [27]: > 100 µM; GI50 [28]: > 100 µM; GI50 [29]: 34.7 µM; GI50 [30]: 46.8 µM; GI50 [31]: 44.7 µM; GI50 [32]: > 100 µM; GI50 [33]: 6.31 µM; GI50 [34]: 11 µM; GI50 [35]: 28.2 µM; GI50 [36]: 38 µM; GI50 [37]: 0.813 µM; GI50 [38]: 20 µM; GI50 [39]: 69.2 µM
> 100 µM	22.9 µM	> 100 µM	> 100 µM	> 100 µM	75.9 µM	77.6 µM	30.9 µM	87.1 µM	37.2 µM	CCCCCCCCCCCC[C@@H](O)[C@H]1CC[C@H]([C@H](O)CCCCCCCCCCCCc2ccnn2C)O1	24 µM	> 100 µM	550 nM	37.2 µM	> 100 µM	> 100 µM	64.6 µM	> 100 µM	> 100 µM	> 100 µM	GI50 [3]: 6.17 µM; GI50 [5]: 4.37 µM; GI50 [21]: 26.9 µM; GI50 [24]: 9.12 µM; GI50 [25]: 69.2 µM; GI50 [26]: 32.4 µM; GI50 [27]: > 100 µM; GI50 [28]: > 100 µM; GI50 [29]: > 100 µM; GI50 [30]: 79.4 µM; GI50 [31]: > 100 µM; GI50 [32]: > 100 µM; GI50 [33]: 3.8 µM; GI50 [34]: 0.912 µM; GI50 [35]: 52.5 µM; GI50 [36]: 49 µM; GI50 [37]: 32.4 µM; GI50 [38]: 70.8 µM; GI50 [39]: > 100 µM

SMILES	GI50 [1]	GI50 [4]	GI50 [9]	GI50 [10]	GI50 [14]	GI50 [15]	GI50 [18]	GI50 [19]	GI50 [20]	GI50 [23]	GI50 [2]	GI50 [6]	GI50 [7]	GI50 [8]	GI50 [11]	GI50 [12]	GI50 [13]	GI50 [16]	GI50 [17]	GI50 [22]	further results
CCCCCCCCCCCC[C@@H](O)[C@H]1CC[C@H]([C@H](O)CCCCCCCCCCCCC2=C[C@H](C)OC2=O)O1 [REL-SOLAMIN]	> 100 µM	> 100 µM	> 100 µM	> 100 µM	> 100 µM	> 100 µM	> 100 µM	> 100 µM	> 100 µM	> 100 µM	39.8 µM	> 100 µM	4270 nM	> 100 µM	> 100 µM	> 100 µM	> 100 µM	28.8 µM	> 100 µM	> 100 µM	GI50 [24]: > 100 µM; GI50 [25]: > 100 µM; GI50 [26]: > 100 µM; GI50 [27]: > 100 µM; GI50 [28]: > 100 µM; GI50 [29]: > 100 µM; GI50 [30]: > 100 µM; GI50 [31]: > 100 µM; GI50 [32]: > 100 µM; GI50 [35]: > 100 µM; GI50 [36]: > 100 µM; GI50 [37]: > 100 µM; GI50 [38]: > 100 µM; GI50 [39]: > 100 µM
